Our source for the IC50 values is patent US20090054413A1, “Novel 5,6-Dihydropyrazolo[3,4-E] [L,4]Diazepin-4 (IH) -One Derivatives for the Treatment of Asthma and Chronic Obstructive Pulmonary Disease” (AstraZeneca AB, priority 2005, published 2009).

SMILES strings stand for the structures.

In the test the target is recombinant Human Phosphodiesterase B2 (PDE4B2) (Homo sapiens, UniProt Q07343). Put plainly: Human Phosphodiesterase B2 Alpha Screen Assay. Type of test: biochemical. To be noted: recombinant human PDE4B2, cAMP substrate, 60 min at room temperature. The method, then: Human Phosphodiesterase B2 Alpha Screen Assay
The assay uses recombinant Human Phosphodiesterase B2 (PDE4B2) produced in house (PrAZL0133), stored at −20° C. The substrate uses cAMP, part of the Alpha Screen cAMP kit (Perkin Elmer, Cat #6760625M), stored at 4° C. The Alpha Screen kit also includes biotinylated cAMP, acceptor and donor beads.
The assay additions were as follows: Test compounds and controls were added to white 384-well flat-bottom plates (Greiner, Cat #781075), 0.2 μl in 100% DMSO, followed by 10 μl PDE4B2 in reaction buffer. The reaction buffer constitution was: 50 mM Tris (pH 7.5), 8.3 mM MgCl2, 1.7 mM EGTA and 0.01% (w/v) Brij®35. The enzyme and the compounds were incubated at room temperature for 15 minutes. Then 10 μl cAMP in reaction buffer was added. The assay was stopped after 60 minutes incubation at room temperature by adding 10 μl acceptor beads in detection buffer with 40 mM EDTA. The detection buffer constitution was: 5 mM Tris (pH 7.5), 0.1% (w/v) BSA and 0.1% (v/v) Tween 20. This addition followed by an addition of 10 μl donor beads in detection buffer, with biotinylated cAMP. The plates were then incubated, dark at room temperature, for 5 hours followed by measurement on a Fusion™-α analyser. IC50 values (presented in Table 1) were determined using Xlfit curve fitting using model 205.

Sequence of recombinant Human Phosphodiesterase B2 (PDE4B2) (Q07343 1-564 isoform Q07343-2): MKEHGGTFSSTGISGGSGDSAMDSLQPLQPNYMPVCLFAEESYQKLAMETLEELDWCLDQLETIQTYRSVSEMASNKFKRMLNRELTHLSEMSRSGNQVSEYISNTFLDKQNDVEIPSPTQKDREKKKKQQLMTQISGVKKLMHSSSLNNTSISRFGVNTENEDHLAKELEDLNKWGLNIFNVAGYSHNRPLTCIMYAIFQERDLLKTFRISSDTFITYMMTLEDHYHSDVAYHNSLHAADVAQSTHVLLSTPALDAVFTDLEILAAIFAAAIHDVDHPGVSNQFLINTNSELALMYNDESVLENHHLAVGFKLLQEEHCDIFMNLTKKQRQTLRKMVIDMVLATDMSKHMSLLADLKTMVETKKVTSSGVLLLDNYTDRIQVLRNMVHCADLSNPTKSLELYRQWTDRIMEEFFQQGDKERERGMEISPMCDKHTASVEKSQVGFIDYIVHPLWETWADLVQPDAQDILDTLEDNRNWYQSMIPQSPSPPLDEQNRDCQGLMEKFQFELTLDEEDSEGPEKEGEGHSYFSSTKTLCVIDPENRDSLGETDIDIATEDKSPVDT

As to `CCc1nn(C2CCS(=O)(=O)CC2)c2c1C(=O)NCC(c1ccccc1)=N2` [Example 35, 1-(1,1-Dioxidotetrahydro-2H-thiopyran-4-yl)-3-ethyl-7-phenyl-5,6-dihydropyrazolo[3,4-e][1,4]diazepin-4(1H)-one], the IC50 worked out at 40.3 nM.
`Cc1nn(C2CCCC2)c2c1C(=O)NCC(c1ccccc1)=N2` [Example 36, 1-Cyclopentyl-3-methyl-7-phenyl-5,6-dihydropyrazolo[3,4-e][1,4]diazepin-4(1H)-one]: the half-inhibitory concentration (IC50) was found to be 9.49 nM.
